What all share (design): scale not given: the % may be the effect or the level left
For assay [1], the system named is Platelet. Briefly: Inhibition of collagen-induced platelet aggregation in rabbit platelet-rich plasma at 100 ug/ml by turbidimetric method. It is filed as functional, Oryctolagus cuniculus.
Assay [2] deals with Platelet. Briefly: Inhibition of adenosine diphosphate-induced platelet aggregation in rabbit platelet-rich plasma at 100 ug/ml by turbidimetric method. In kind it is functional, Oryctolagus cuniculus.
Assay [3] has as its system Platelet. Briefly: Inhibition of arachidonic acid-induced platelet aggregation in rabbit platelet-rich plasma at 100 ug/ml by turbidimetric method. It is filed as functional, Oryctolagus cuniculus.
For assay [4], the system named is Platelet. Briefly: Inhibition of platelet-activity factor-induced platelet aggregation in rabbit platelet-rich plasma at 100 ug/ml by turbidimetric method. In kind it is functional, Oryctolagus cuniculus.
For assay [5], the system named is Aorta. Briefly: Vasorelaxant activity against norepinephrine-induced phasic contraction in Wistar rat thoracic aorta at 100 ug/ml. It is filed as functional.
The test system of assay [6] is Aorta. Briefly: Vasorelaxant activity against high potassium-induced contraction in Wistar rat thoracic aorta at 100 ug/ml. In kind it is functional.
Assay [7] concerns Aorta. Briefly: Vasorelaxant activity against norepinephrine-induced tonic contraction in Wistar rat thoracic aorta at 100 ug/ml. In kind it is functional.
For assay [8], the system named is Platelet. Briefly: Inhibition of arachidonic acid-induced platelet aggregation in rabbit platelet-rich plasma at 50 ug/ml by turbidimetric method. It is filed as functional, Oryctolagus cuniculus.
Assay [9] concerns Platelet. Briefly: Inhibition of adenosine diphosphate-induced platelet aggregation in rabbit platelet-rich plasma at 50 ug/ml by turbidimetric method. In kind it is functional, Oryctolagus cuniculus.
Assay [10] deals with Platelet. Briefly: Inhibition of platelet-activity factor-induced platelet aggregation in rabbit platelet-rich plasma at 50 ug/ml by turbidimetric method. It is filed as functional, Oryctolagus cuniculus.
Assay [11] has as its system Platelet. Briefly: Inhibition of collagen-induced platelet aggregation in rabbit platelet-rich plasma at 50 ug/ml by turbidimetric method. In kind it is functional, Oryctolagus cuniculus.
For assay [12], the system named is Aorta. Briefly: Vasorelaxant activity against norepinephrine-induced tonic contraction in Wistar rat thoracic aorta at 20 ug/ml. It is filed as functional.
Assay [13] relates to Aorta. Briefly: Vasorelaxant activity against norepinephrine-induced phasic contraction in Wistar rat thoracic aorta at 20 ug/ml. It is filed as functional.
Assay [14] relates to Aorta. Briefly: Vasorelaxant activity against high potassium-induced contraction in Wistar rat thoracic aorta at 20 ug/ml. In kind it is functional.
For assay [15], the system named is Platelet. Briefly: Inhibition of arachidonic acid-induced platelet aggregation in rabbit platelet-rich plasma at 25 ug/ml by turbidimetric method. In kind it is functional, Oryctolagus cuniculus.
For assay [16], the system named is Platelet. Briefly: Inhibition of collagen-induced platelet aggregation in rabbit platelet-rich plasma at 25 ug/ml by turbidimetric method. It is filed as functional, Oryctolagus cuniculus.
The test system of assay [17] is Platelet. Briefly: Inhibition of platelet-activity factor-induced platelet aggregation in rabbit platelet-rich plasma at 25 ug/ml by turbidimetric method. It is filed as functional, Oryctolagus cuniculus.
Assay [18] relates to Platelet. Briefly: Inhibition of adenosine diphosphate-induced platelet aggregation in rabbit platelet-rich plasma at 25 ug/ml by turbidimetric method. In kind it is functional, Oryctolagus cuniculus.
Assay [19] relates to Aorta. Briefly: Vasorelaxant activity against high potassium-induced contraction in Wistar rat thoracic aorta at 50 ug/ml. In kind it is functional.
Assay [20] has as its system Aorta. Briefly: Vasorelaxant activity against norepinephrine-induced tonic contraction in Wistar rat thoracic aorta at 50 ug/ml. In kind it is functional.
Assay [21] deals with Aorta. Briefly: Vasorelaxant activity against norepinephrine-induced phasic contraction in Wistar rat thoracic aorta at 50 ug/ml. In kind it is functional.
Assay [22] concerns Aorta. Briefly: Vasorelaxant activity against high potassium-induced contraction in Wistar rat thoracic aorta at 1 ug/ml. It is filed as functional.
Assay [23] relates to Aorta. Briefly: Vasorelaxant activity against norepinephrine-induced phasic contraction in Wistar rat thoracic aorta at 1 ug/ml. In kind it is functional.
Assay [24] deals with Aorta. Briefly: Vasorelaxant activity against norepinephrine-induced tonic contraction in Wistar rat thoracic aorta at 1 ug/ml. In kind it is functional.

As for `COc1ccc(C[C@@H]2c3cc(OC)c(OC)cc3CCN2C)cc1OC`, the Activity in the assay with Platelet [1] stood at 81.4%; in the assay on Platelet [2], 92.2%; in the assay with Platelet [3] it was 81.2%; in the assay with Platelet [4], 92.5%.
As to `COc1cc2ccc3c(CCN(C)C)cc4c(c3c2cc1OC)OCO4`, the Activity in the assay on Platelet [1] was determined as 6.1%; in the assay with Aorta [5], 7.1%; in the assay with Aorta [6], 44.6%; in the assay on Aorta [7], 0%; in the assay with Platelet [2], 34.9%; in the assay on Platelet [3] it was 46.9%. This compound also gave an Activity in the assay with Platelet [4] of 80.5%.
Take `COc1ccc2c(ccc3c(CCN(C)O)cc4c(c32)OCO4)c1`: the Activity came to 102% with Aorta [5]; 0% in the assay with Platelet [8]; 55.8% in the assay with Aorta [6]; 91.9% in the assay with Aorta [7]; 58.6% with Platelet [9]; 74.8% in the assay with Platelet [10]. Besides, the Activity with Platelet [11] is listed as 23.5%.
Consider `COc1cc(CC[N+](C)(C)[O-])c2ccc3ccccc3c2c1OC`, for which the Activity stood at 0% in the assay on Platelet [1]; 30% with Aorta [5]; 5.8% with Aorta [6]; 27.5% in the assay on Aorta [7]; 37.4% with Platelet [2]; 0% in the assay on Platelet [3]. The compound also yielded an Activity with Platelet [4] of 61.1%.
Regarding `COc1cc2ccc3c(CC[N+](C)(C)[O-])cc(OC)c(OC)c3c2cc1OC`, the Activity with Platelet [1] amounted to 52.1%; in the assay with Aorta [12] it was 83.2%; in the assay with Platelet [2] it was 74.6%; in the assay with Aorta [13], 72.5%; in the assay on Aorta [14], 104.2%; with Platelet [3] it was 83.5%. The compound further displayed an Activity in the assay on Platelet [4] of 87.2%.
With `COc1cc2c(cc1OC)[C@H](Cc1ccc(O)cc1)NCC2.[O-][Cl+3]([O-])([O-])O`, the Activity with Platelet [1] is reported as 83.6%; in the assay on Aorta [5] it was 100%; in the assay on Aorta [6] it was 43%; in the assay with Aorta [7], 90.5%; in the assay with Platelet [2], 63.1%; in the assay on Platelet [3], 60.5%. The compound further showed an Activity with Platelet [4] of 78.2%.
Take `COc1ccc(C[C@@H]2NCCc3cc(OC)c(OC)cc32)cc1.O=C(O)C(=O)O`: the Activity in the assay with Platelet [1] is 86.6%; with Platelet [2], 93.4%; with Platelet [3], 87.3%; with Platelet [4] it was 91.4%.
On to `COc1ccc(C[C@H]2NCCc3cc(OC)c(OC)cc32)cc1`, for which the Activity with Platelet [1] amounted to 79.2%; in the assay with Platelet [2] it was 93.1%; in the assay with Platelet [3], 89.2%; with Platelet [4], 90.7%.
Turning to `COc1cc2c(cc1OC)[C@H](Cc1ccc(O)cc1)N(C)CC2.O=C(O)C(=O)O`, the Activity is recorded as 82.4% in the assay on Platelet [1], 89.7% with Platelet [2], 79.5% with Platelet [3] and 91.5% in the assay with Platelet [4].
For `COc1cc2c(cc1OC)[C@@H](Cc1ccc(O)cc1)N(C)CC2.O=C(O)C(=O)O`, the Activity in the assay on Platelet [1] worked out at 88.4%; in the assay on Platelet [2] it was 92.7%; in the assay with Platelet [3] it was 91.3%; in the assay on Platelet [4], 93.6%.
On to `COc1cc2c(cc1OC)[C@H](Cc1ccc(O)cc1)[N+](C)(C)CC2.[I-]`, for which the Activity came to 39.6% with Platelet [1], 93.7% in the assay with Platelet [2], 66.8% in the assay with Platelet [3] and 88.4% with Platelet [4].
For `COc1cc2c(cc1OC)C(Cc1ccc(O)cc1)NCC2` (racemic), the Activity is listed as 24.7% in the assay with Platelet [1]; 103% in the assay on Aorta [5]; 107.8% in the assay with Aorta [6]; 95.7% in the assay on Aorta [7]; 30.4% in the assay with Platelet [2]; 49.7% with Platelet [3]. The Activity in the assay on Platelet [4] came to 86.4%.
With `COc1cc2c(cc1O)C(Cc1ccc(O)cc1)NCC2` (racemic) [COCLAURINE], the Activity in the assay on Platelet [1] was found to be 69.7%; in the assay with Aorta [5], 100%; in the assay on Aorta [6], 109.9%; in the assay on Aorta [7] it was 93.7%; with Platelet [2], 70.2%; with Platelet [3], 0%. Also, in the assay on Platelet [4], the Activity worked out at 72.7%.
Take `COc1cc2c(cc1O)C(Cc1ccc(O)cc1)N(C)CC2` (racemic) [METHYL COCLAURINE]: the Activity with Platelet [1] is reported as 24.8%; in the assay on Aorta [12], 106.6%; in the assay on Platelet [2] it was 73.6%; in the assay on Aorta [13], 149.6%; in the assay on Aorta [14], 70.8%; in the assay on Platelet [3] it was 13.8%. The compound further returned an Activity in the assay on Platelet [4] of 75.7%.
As for `COc1ccc(C[C@H]2c3cc(O)c(OC)cc3CCN2C)cc1O` [(S)-RETICULINE], the Activity with Platelet [1] turned out to be 84.2%; with Aorta [5] it was 100%; with Aorta [6] it was 109.3%; in the assay on Aorta [7], 110.5%; with Platelet [2], 58.7%; in the assay with Platelet [3], 39.2%. In the assay on Platelet [4], this compound gave an Activity of 85.9%.
Regarding `CC(=O)Oc1ccccc1C(=O)O` [ASPIRIN], the Activity amounted to 0% with Platelet [15], 87.8% in the assay on Platelet [16], 90.4% in the assay with Platelet [17] and 77.9% with Platelet [18].
As for `COc1cc(CCN(C)C)c2ccc3ccccc3c2c1OC.[O-][Cl+3]([O-])([O-])O` [ATHEROSPERMININE HCLO4], the Activity with Platelet [1], in the assay on Aorta [5], in the assay on Aorta [6], in the assay on Aorta [7], in the assay on Platelet [2] and in the assay with Platelet [3] was 0% throughout. The compound further gave an Activity with Platelet [4] of 0%.
Take `COc1cc(CC[N+](C)(C)C)c2ccc3ccccc3c2c1OC.[I-]` [ATHEROSPERMINIUM I]: the Activity is 0% in the assay with Platelet [1]; 100.5% with Aorta [12]; 0% in the assay on Platelet [2]; 108.3% in the assay on Aorta [13]; 38.3% in the assay with Aorta [14]; 0% with Platelet [3]. In the assay with Platelet [4], the Activity is on record as 0%.
Turning to `COc1ccc(C[C@H]2c3cc(OC)c(OC)cc3CCN2C)cc1O` [LAUDANIDINE], the Activity was found to be 89% in the assay with Platelet [8]; 105% in the assay on Aorta [19]; 80.9% in the assay with Aorta [20]; 77.6% with Platelet [9]; 58.5% in the assay with Aorta [21]; 90% with Platelet [10]. Further, the Activity in the assay on Platelet [11] is on record as 87.9%.
Take `COc1cc2c(cc1O)[C@@H](Cc1ccc(O)cc1)[N+](C)(C)CC2.[I-]` [MAGNOCURARINE IODIDE]: the Activity is recorded as 87.7% in the assay on Platelet [1]; 122.5% with Aorta [5]; 134.7% in the assay with Aorta [6]; 123.5% in the assay on Aorta [7]; 69% in the assay with Platelet [2]; 87.4% in the assay on Platelet [3]. In the assay with Platelet [4], this compound yielded an Activity of 23.2%.
`COC(=O)C1=C(C)NC(C)=C(C(=O)OC)C1c1ccccc1[N+](=O)[O-]` [NIFEDIPINE] gave an Activity in the assay with Aorta [22] of 0%.
In the case of `COc1cc2c(cc1OC)[C@H](Cc1ccc(O)cc1)NCC2` [NORARMEPAVINE], the Activity is 83.4% in the assay on Platelet [1]; 121.9% in the assay on Aorta [5]; 71.2% with Aorta [6]; 105.7% in the assay on Aorta [7]; 69.7% with Platelet [2]; 75.5% in the assay on Platelet [3]. The same compound displayed an Activity with Platelet [4] of 57.8%.
On to `COc1cc2nc(N3CCN(C(=O)c4ccco4)CC3)nc(N)c2cc1OC` [PRAZOSIN], for which the Activity in the assay with Aorta [23] turned out to be 0%; in the assay with Aorta [24], 100%.

The values are drawn from ChEMBL document CHEMBL1158268, “Antiplatelet of vasorelaxing actions of some benzylisoquinoline and phenanthrene alkaloids” (1996).
